Source: patent US20030036082A1, “Screening methods” (priority 2001, published 2003)

Key:
[1] = test system: epitrochlearis muscle from Wistar rats; assay: 3-O-methyl-glucose transport in isolated epitrochlearis muscle; assay type: cell-based; settings: 25 μM inhibitor, Wistar rat epitrochlearis muscle
Method: The influence of total DGK activity on insulin-stimulated glucose uptake was assessed by measurements on epitrochlearis muscle from Wistar rats using a specific inhibitor for diacylglycerol kinase, DGK inhibitor II™ (Jang, Y. et al. (2000) Biochem. Pharmacol. 59: 763-772).
Media were prepared from a pre-gassed (95% O2/5% CO2) Krebs Henseleit buffer (KHB) containing 5 mM glucose and 0.1% BSA (RIA grade). Epitrochlearis muscles were incubated (20 min) in a shaking water bath (30° C.) in 2 ml of KHB, supplemented with 20 mM mannitol, with or without 2.4 nM insulin and 25 μM DGK-II inhibitor (Calbiochem). Muscles were transferred to KHB containing 8 mM 3-O-methyl[^3H]glucose (438 μCi/mmol; 1 Ci=[…]) and 12 mM [^14C]mannitol (42 μCi/mmol) and incubated (10 min) with or without insulin and 25 μM of DGKII inhibitor. 3-O-methyl-glucose transport activity was assessed as described (Wallberg-Henriksson et al. (1987) J. Biol. Chem. 262: 7665-7671) and expressed as micromoles per milliliter of intracellular water per hour.

total DGK activity [2] = assay: Reduction of total DGK activity by DGK inhibitor (data not shown); assay type: biochemical
DGKδ = DGKδ protein expression in gastrocnemius skeletal muscle by immunoblotting after phlorizin treatment; assay type: in vivo; settings: GK rats, phlorizin 0.8 g/kg body wt per day s.c. for 4 weeks
Method: (§1) In order to investigate the influence of DGKδ on insulin-stimulated glucose uptake in more detail, DGKδ expression studies and measurements of DGK activity were performed in GK rats, a lean animal model for type 2 diabetes (Goto et al., pp. 301-303 in: Frontiers in Diabetes Research (Shafrir E., Renold, A E, Eds.) London, John Libbey, 1988). Male GK rats (200-250 g) were obtained from the Karolinska Institute, Sweden. Weight-matched male Wistar rats served as controls (B&K Universal, Sollentuna, Sweden). All rats were maintained under a 12-hour light/dark cycle, and had free access to water and standard rodent diet. Four groups of animals were studied: vehicle-treated Wistar rats (n=5), phlorizin-treated Wistar rats (n=6), vehicle-treated GK-rats (n=6) and phlorizin-treated GK-rats (n=6). […]
Portions of the gastrocnemius skeletal muscle (approximately 30 mg) were crushed in liquid N2 and then lysed in ice-cold buffer (137 mM NaCl, 2.7 mM KCl, 1 mM MgCl2, 0.5 mM Na3VO4, 1% Triton X-100, 10% glycerol, 20 mM Tris pH 8.0, […] leupeptin, 0.2 mM PMSF, 10 mM NaF, 10 μg/ml aprotinin). […] The supernatant was removed and protein concentration was determined. […] Proteins were visualized by ECL and quantified by densitometric scanning.

total DGK activity [3] = assay: Octyl glucoside/PS mixed-micelle assay of total DGK activity in gastrocnemius muscle after phlorizin treatment; assay type: in vivo; settings: GK rats, phlorizin 0.8 g/kg body wt per day s.c. for 4 weeks
Method: as §1, with “diet.” for “diet. Four groups of animals were studied: vehicle-treated Wistar rats (n=5), phlorizin-treated Wistar rats (n=6), vehicle-treated GK-rats (n=6) and phlorizin-treated GK-rats (n=6).”
Portions of the gastrocnemius skeletal muscle (approximately 30 mg) were crushed in liquid nitrogen, homogenized by sonication in ice-cold buffer containing 20 mM Tris-HCl, pH 7.5, 250 mM sucrose, 1 mM EDTA, 1 mM EGTA, 1 mM dithiothreitol (DTT), 1 mM PMSF, a 20 μg/ml concentration of each: leupeptin, pepstatin, aprotinin, and soybean trypsin inhibitor and centrifuged at 12,000×g for 10 min at 4° C. The supernatant was collected and protein concentration was determined.
An octyl glucoside/PS mixed-micelle assay of total DGK activity was performed using [γ-^32P] […] The region containing phosphatidic acid was quantified by phosphoimaging and densitometry.

[4] = diabetic GK rats, treatment with phlorizin; cited from earlier work

Row | SMILES | decrease of insulin-stimulated glucose transport ([1]; 2.4 nM insulin) | basal glucose transport ([1]; without insulin) | reduction of total DGK activity (total DGK activity [2]) [%] | DGK content in the muscle (DGKδ protein level, immunoblot densitometry) (DGKδ) | total DGK activity in muscle (total DGK activity [3]) | blood glucose levels [4]
1 | O=c1c2ccccc2[nH]c(=S)n1CCN1CCC(=C(c2ccc(F)cc2)c2ccc(F)cc2)CC1 [DGK inhibitor II™] | approximately 30% | not affected | 70 | – | – | –
2 | O=C(CCc1ccc(O)cc1)c1c(O)cc(O)cc1O[C@@H]1O[C@H](CO)[C@@H](O)[C@H](O)[C@H]1O [phlorizin, Phlorizin] | – | – | – | increase of DGK content in the muscle to approximately the same values as measured in healthy Wistar rats | increase of total DGK activity in GK rat muscle upon phlorizin treatment to a level measured in muscle from healthy Wistar rats | brings glucose levels back to normal values
